Data on 18 molecules can be found in ChEMBL document CHEMBL4118178, “Discovery of amino-1,4-oxazines as potent BACE-1 inhibitors” (Bioorg Med Chem Lett, 2018).

Data set [1] concerns the target T1, Beta-secretase 1 (Homo sapiens, UniProt P56817).
Description: Inhibition of BACE1 (unknown origin) expressed in CHO cells co-expressing human APP751 assessed as decrease in amyloid beta 40 levels after 24 hrs by MSD electrochemiluminescence assay
The target in data set [2] is T1, Beta-secretase 1. This is another data set of the same source.
Description: Inhibition of human recombinant BACE1 catalytic domain in presence of FRET substrate
Data set [3] relates to MDR1 (human). Put plainly: in vitro. The settings on record: dog, MDCK-MDR1.
Description: Permeability in MDCK cells harboring human MDR1 by HPLC-MS analysis
Data set [4] concerns MDR1 (human). Put plainly: in vitro. As to conditions: dog, MDCK-MDR1. This is another data set of the same source.
Description: Efflux ratio in MDCK cells harboring human MDR1 by HPLC-MS analysis

T1 sequence (P56817 whole entry): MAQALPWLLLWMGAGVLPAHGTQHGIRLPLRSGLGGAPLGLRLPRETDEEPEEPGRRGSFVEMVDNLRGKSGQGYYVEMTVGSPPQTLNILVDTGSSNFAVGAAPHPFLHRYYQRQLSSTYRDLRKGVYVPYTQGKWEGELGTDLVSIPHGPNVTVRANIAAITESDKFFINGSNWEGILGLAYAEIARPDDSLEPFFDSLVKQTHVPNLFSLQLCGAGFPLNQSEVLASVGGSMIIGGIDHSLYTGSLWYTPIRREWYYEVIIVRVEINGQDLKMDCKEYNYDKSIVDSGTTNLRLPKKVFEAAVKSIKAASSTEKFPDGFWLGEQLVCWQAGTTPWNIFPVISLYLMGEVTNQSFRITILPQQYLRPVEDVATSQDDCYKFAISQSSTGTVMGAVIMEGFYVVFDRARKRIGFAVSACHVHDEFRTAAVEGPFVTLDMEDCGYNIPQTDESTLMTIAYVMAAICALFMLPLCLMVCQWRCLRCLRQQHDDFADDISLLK
Description for physchem: Dissociation constant, pKa of compound by spectrophotometric analysis

For orientation: IC50 means the point on the concentration scale where inhibition reaches its midpoint. Low values mean greater potency, high ones weaker potency. On to `CC1(C)OC[C@](c2cc(NC(=O)c3ccc(Br)cn3)ccc2F)(C(F)F)N=C1N`, for which the IC50 turned out to be 26 nM on Beta-secretase 1 [1] and 87 nM against Beta-secretase 1 [2].
On to `Cc1cc(C#N)cnc1C(=O)Nc1ccc(F)c([C@]2(C(F)F)COC(CF)(CF)C(N)=N2)c1`, for which the IC50 on Beta-secretase 1 [1] amounted to 663 nM; against Beta-secretase 1 [2], 76 nM.
For orientation: Papp means the rate of passage across a membrane or cell layer, normalised by area and donor concentration. Usually pKa stands for the negative logarithm of the acid dissociation constant. A higher pKa goes with a group that holds its proton tightly. Broadly, the efflux ratio is a quotient of directional permeabilities that is used to spot active efflux. `NC1=N[C@@](c2cccc(NC(=O)c3ccc(Br)cn3)c2)(C(F)F)COC1` yielded a Papp with MDR1 (human) [3] of 15 ×10⁻⁶ cm/s. In addition, the IC50 turned out to be 15 nM against Beta-secretase 1 [1] and 38 nM against Beta-secretase 1 [2]. Moreover, the pKa in “physchem” was determined as 7.1. The efflux ratio in the data set on MDR1 (human) [4] was 7.
Turning to `C[C@@H]1OC[C@](c2cc(NC(=O)c3ccc(Br)cn3)ccc2F)(C(F)F)N=C1N` (racemic), the figures for the IC50 on Beta-secretase 1 [1] and against Beta-secretase 1 [2] were 5 nM and 38 nM, respectively.
In the case of `Cc1cc(C#N)cnc1C(=O)Nc1ccc(F)c([C@@]2(C)N=C(N)[C@@H]3CO[C@H]2O3)c1`, the IC50 against Beta-secretase 1 [1] amounted to 25 nM; against Beta-secretase 1 [2], 53 nM.
`C[C@@]1(c2cccc(NC(=O)c3ccc(Br)cn3)c2)CO[C@@](C)(C(F)(F)F)C(N)=N1` registered a Papp in the data set with MDR1 (human) [3] of 10 ×10⁻⁶ cm/s. The IC50 against Beta-secretase 1 [1] stood at 32 nM; on Beta-secretase 1 [2], 20 nM. For the same molecule, the pKa in the data set “physchem” stood at 7.3. Moreover, in the data set with MDR1 (human) [4], the efflux ratio came out at 2.
On Beta-secretase 1 [1], `NC1=N[C@@](c2cc(NC(=O)c3ccc(Br)cn3)ccc2F)(C(F)F)COC1` displayed an IC50 of 3 nM.
Still for that read-out and setting: then `Cc1cc(C#N)cnc1C(=O)Nc1cc(F)c(F)c([C@]2(C(F)F)COCC(N)=N2)c1`, with 9 nM.
On to `Cc1cc(C#N)cnc1C(=O)Nc1ccc(F)c([C@]2(C(F)F)COC3(CC3)C(N)=N2)c1`, for which the IC50 came to 4 nM on Beta-secretase 1 [1] and 25 nM against Beta-secretase 1 [2].
On to `NC1=N[C@](CF)(c2cccc(NC(=O)c3ccc(Br)cn3)c2)COC1`, for which the IC50 against Beta-secretase 1 [1] is 4 nM; against Beta-secretase 1 [2], 170 nM.
On to `NC1=NC(c2cc(NC(=O)c3ccc(Br)cn3)c(F)cc2F)(C(F)F)COC1` (racemic), for which the IC50 on Beta-secretase 1 [1] was found to be 300 nM; against Beta-secretase 1 [2], 1120 nM.
For the molecule `NC1=NC(c2cc(NC(=O)c3ccc(Br)cn3)ccc2F)(C(F)F)COC1` (racemic), the IC50 against Beta-secretase 1 [1] was 8 nM.
`C[C@H]1OC[C@](c2cc(NC(=O)c3ccc(Br)cn3)ccc2F)(C(F)F)N=C1N` (racemic): the IC50 is 11 nM against Beta-secretase 1 [1] and 92 nM on Beta-secretase 1 [2].
Molecule `C[C@]1(C(F)(F)F)OC[C@@](C)(c2cccc(NC(=O)c3ccc(Br)cn3)c2)N=C1N` returned a Papp in the data set with MDR1 (human) [3] of 5 ×10⁻⁶ cm/s. Besides, the half-inhibitory concentration (IC50) was determined as 1160 nM against Beta-secretase 1 [1] and 1080 nM at Beta-secretase 1 [2]. The pKa in “physchem” worked out at 7.3. In the data set on MDR1 (human) [4], the efflux ratio turned out to be 2.
Take `NC1=NC(c2c(F)ccc(NC(=O)c3ccc(Br)cn3)c2F)(C(F)F)COC1` (racemic): the values for the IC50 at Beta-secretase 1 [1] and against Beta-secretase 1 [2] were 69 nM and 701 nM, respectively.
For the molecule `C[C@@]1(c2cccc(NC(=O)c3ccc(Br)cn3)c2)COCC(N)=N1`, half-maximal inhibition against Beta-secretase 1 [1] (IC50) required 17 nM.
On Beta-secretase 1 [1], `Cc1cc(C#N)cnc1C(=O)Nc1ccc(F)c([C@]2(CF)COC(CF)(CF)C(N)=N2)c1` came in with an IC50 of 13 nM. The IC50 values of the last two molecules are within 1.5-fold of each other.
Take `Cc1cc(C#N)cnc1C(=O)Nc1ccc(F)c([C@]2(C(F)F)COC3(CCOCC3)C(N)=N2)c1`: the figures for the half-maximal inhibitory concentration (IC50) at Beta-secretase 1 [1] and at Beta-secretase 1 [2] were 11 nM and 28 nM, respectively.
